According to patent US5041567A, “Antibacterial monic acid derivatives” (Beecham Group plc, priority 1982, dated 1991):
≈ marks a conversion by molar mass, not a printed value. Read-outs that look alike come from different tables or passages of the source.

How the values were obtained:
M. gallisepticum S6 = experiment: MIC against mycoplasma in vitro; type: cell-based; conditions: Mycoplasmoides gallisepticum
M. suipneumoniae Str. 11 = experiment: MIC against mycoplasma in vitro; type: cell-based; conditions: Mesomycoplasma hyopneumoniae
Staph. aureus Oxford = experiment: MIC against veterinary bacteria in vitro; conditions: Staphylococcus aureus, 18 h
Description: (§1) The activity of the compounds of the Examples against various veterinarily important bacteria, was assayed in vitro using two-fold serial dilutions in Diagnostic Sensitivity Test Agar inoculated with 10^4 organisms.

[1] = test system: Haemophilus influenzae Q1; experiment: MIC against human bacteria in vitro; type: cell-based
M. bovis NCTC 10131 = experiment: microbe, parasite or virus in culture; type: cell-based; conditions: NCTC10131, 144 h
[2] = test system: M. suipneumoniae NCTC 10110; experiment: MIC against mycoplasma in vitro; type: cell-based; conditions: Mesomycoplasma hyopneumoniae, NCTC10110, 144 h
[3] = test system: Neisseria catarrhalis 1502; experiment: MIC against human bacteria in vitro; type: cell-based; conditions: Neisseria catarrhalis 1502; 5% chocolated horse blood agar, 18 hours; read-out: MIC
[4] = test system: Ps. aeruginosa NCTC 10662; experiment: MIC against human bacteria in vitro; type: cell-based; conditions: Pseudomonas aeruginosa, NCTC10662; Ps. aeruginosa NCTC 10662; 5% chocolated horse blood agar, 18 hours; read-out: MIC
S. typhimurium S18 = experiment: MIC against veterinary bacteria in vitro; conditions: Salmonella enterica, TYPHIMURIUM, 18 h
Description: as §1

E. coli NCTC 10418 = experiment: MIC against veterinary bacteria in vitro; conditions: Escherichia coli, NCTC10418, 18 h
Description: as §1

M. suipneumoniae NB12 = experiment: MIC against mycoplasma in vitro; type: cell-based; conditions: Mesomycoplasma hyopneumoniae
[5] = test system: Erysipelothrix rhusiopathiae NCTC 8163; experiment: MIC against veterinary bacteria in vitro; conditions: Erysipelothrix rhusiopathiae, NCTC8163, 18 h
Description: as §1

[6] = test system: Haemophilus influenzae Wy21; experiment: MIC against human bacteria in vitro; type: cell-based
[7] = test system: M. suipneumoniae J2206/183^b; experiment: MIC against mycoplasma in vitro; type: cell-based; conditions: Mesomycoplasma hyopneumoniae, 144 h
Strep. uberis SPU1 = experiment: MIC against veterinary bacteria in vitro; conditions: Streptococcus uberis, SPU1, 18 h
Description: as §1

M. pneumoniae ATCC 15492 = experiment: MIC against mycoplasma in vitro; type: cell-based; conditions: Mycoplasmoides pneumoniae, ATCC15492, 144 h
[8] = test system: M. hyosynoviae ATCC 25591; experiment: MIC against mycoplasma in vitro; type: cell-based; conditions: 144 h
M. suipneumoniae JF 435 = experiment: MIC against mycoplasma in vitro; type: cell-based; conditions: Mesomycoplasma hyopneumoniae, JF435, 144 h
[9] = test system: Strep. pyogenes R80/421-A; experiment: MIC against human bacteria in vitro; type: cell-based; conditions: Streptococcus pyogenes; Strep. pyogenes R80/421-A; 5% chocolated horse blood agar, 18 hours; read-out: MIC
[10] = test system: Staph. aureus 152 (pen. sens); experiment: MIC against veterinary bacteria in vitro; conditions: Staphylococcus aureus, 18 h
Description: as §1

Past. haemolytica PA5 = experiment: MIC against veterinary bacteria in vitro; conditions: Mannheimia haemolytica, PA5, 18 h
Description: as §1

[11] = test system: M. bovigenitalium ATCC 14173; experiment: MIC against mycoplasma in vitro; type: cell-based; conditions: 144 h
[12] = test system: Corynebacterium pyogenes CY1; experiment: MIC against veterinary bacteria in vitro; conditions: CY1, 18 h
Description: as §1

[13] = Haemophilus influenzae Wy21, 5% chocolated horse blood agar, 18 hours, read-out: MIC
[14] = 144 h, M. gallisepticum S6, 6 days, 37° C., read-out: MIC
[15] = 144 h, M. suipneumoniae Str. 11, 6 days, 37° C., read-out: MIC
[16] = Haemophilus influenzae Q1, 5% chocolated horse blood agar, 18 hours, read-out: MIC
[17] = M. suipneumoniae NCTC 10110, 6 days, 37° C., read-out: MIC
[18] = 144 h, M. suipneumoniae NB12, Friis broth, 0.9% agarose, 6 days, 37° C., read-out: MIC
[19] = M. suipneumoniae J2206/183^b, 6 days, 37° C., read-out: MIC
[20] = M. pneumoniae ATCC 15492, 6 days, 37° C., read-out: MIC
[21] = M. hyosynoviae ATCC 25591, 6 days, 37° C., read-out: MIC
[22] = M. suipneumoniae JF 435, 6 days, 37° C., read-out: MIC
[23] = M. bovigenitalium ATCC 14173, 6 days, 37° C., read-out: MIC

Compound | MIC (Staph. aureus Oxford) | MIC (M. bovis NCTC 10131) | MIC [3] | MIC [4] | MIC (S. typhimurium S18) | MIC (E. coli NCTC 10418) | MIC [5] | MIC [6, 13] | MIC (Strep. uberis SPU1) | MIC [9] | MIC [10] | MIC (Past. haemolytica PA5) | MIC [11] | MIC [12] | MIC (M. gallisepticum S6; [14]) | MIC (M. suipneumoniae Str. 11; [15]) | MIC [1, 16] | MIC [2, 17] | MIC (M. suipneumoniae NB12; [18]) | MIC [7, 19] | further results
C/C(=C\c1ncc(-c2ccc(S(C)(=O)=O)cc2)o1)C[C@@H]1OC[C@H](C[C@@H]2O[C@H]2[C@@H](C)[C@H](C)O)[C@@H](O)[C@H]1O [Example 10] | 2.5 µg/mL (≈ 4.79 µM) | 0.01 µg/mL (≈ 0.0192 µM) | 8 µg/mL (≈ 15.3 µM) | > 128 µg/mL | > 80 µg/mL | > 80 µg/mL | > 80 µg/mL | 2 µg/mL (≈ 3.83 µM) | 0.625 µg/mL (≈ 1.2 µM) | 8 µg/mL (≈ 15.3 µM) | 2.5 µg/mL (≈ 4.79 µM) | 40 µg/mL (≈ 76.7 µM) | 0.025 µg/mL (≈ 0.0479 µM) | > 80 µg/mL |  |  |  |  |  |  | MIC (M. gallisepticum S6; S6, 144 h): 0.1 µg/mL (≈ 0.192 µM); MIC (M. suipneumoniae Str. 11; STR.11, 144 h): 0.025 µg/mL (≈ 0.0479 µM); MIC ([1]; Haemophilus influenzae, Q1, 18 h): 1 µg/mL (≈ 1.92 µM); MIC [2]: 0.05 µg/mL (≈ 0.0959 µM); MIC (M. suipneumoniae NB12; NB12, 144 h): 0.05 µg/mL (≈ 0.0959 µM); MIC [7]: 0.05 µg/mL (≈ 0.0959 µM); MIC (M. pneumoniae ATCC 15492): 0.1 µg/mL (≈ 0.192 µM); MIC [8]: 0.05 µg/mL (≈ 0.0959 µM); MIC (M. suipneumoniae JF 435): 0.05 µg/mL (≈ 0.0959 µM)
C/C(=C\c1ncc(-c2ccc([S+](C)[O-])cc2)o1)C[C@@H]1OC[C@H](C[C@@H]2O[C@H]2[C@@H](C)[C@H](C)O)[C@@H](O)[C@H]1O (stereo partly drawn) [Example 11, 5-p-Methylsulphinylphenyl-2-(1-normon-2-yl) oxazole A] | 2.5 µg/mL (≈ 4.94 µM) | ≤ 0.01 µg/mL | 8 µg/mL (≈ 15.8 µM) | > 128 µg/mL | > 80 µg/mL | > 80 µg/mL | > 80 µg/mL | 4 µg/mL (≈ 7.91 µM) | 0.312 µg/mL (≈ 0.617 µM) | 4 µg/mL (≈ 7.91 µM) | 2.5 µg/mL (≈ 4.94 µM) | 40 µg/mL (≈ 79.1 µM) |  | > 80 µg/mL | 0.5 µg/mL (≈ 0.989 µM) | 0.1 µg/mL (≈ 0.198 µM) | 2 µg/mL (≈ 3.96 µM) | 0.25 µg/mL (≈ 0.494 µM) | 0.1 µg/mL (≈ 0.198 µM) | 0.25 µg/mL (≈ 0.494 µM) | MIC (M. pneumoniae ATCC 15492; [20]): 0.5 µg/mL (≈ 0.989 µM); MIC [8, 21]: 0.25 µg/mL (≈ 0.494 µM); MIC (M. suipneumoniae JF 435; [22]): 0.25 µg/mL (≈ 0.494 µM); MIC [11, 23]: 0.1 µg/mL (≈ 0.198 µM)
C/C(=C\c1ncc(CCCCCCCC(=O)O)o1)C[C@@H]1OC[C@H](C[C@@H]2O[C@H]2[C@@H](C)[C@H](C)O)[C@@H](O)[C@H]1O [Example 12, Sodium 8-[2-(1-normon-2-yl)-5-oxazolyl]-octanoate A] | 0.625 µg/mL | 0.05 µg/mL | 16 µg/mL | > 16 µg/mL | > 40 µg/mL | > 40 µg/mL | > 40 µg/mL | 2 µg/mL | 0.625 µg/mL | 16 µg/mL | 0.625 µg/mL | 40 µg/mL |  | > 40 µg/mL | > 10 µg/mL | 10 µg/mL | 1 µg/mL | > 10 µg/mL | > 10 µg/mL | > 10 µg/mL | MIC (M. pneumoniae ATCC 15492; [20]): > 10 µg/mL; MIC [8, 21]: 5 µg/mL; MIC (M. suipneumoniae JF 435; [22]): > 10 µg/mL; MIC [11, 23]: 1 µg/mL
C/C(=C\c1ncc(-c2ccc(CO)cc2)o1)C[C@@H]1OC[C@H](C[C@@H]2O[C@H]2[C@@H](C)[C@H](C)O)[C@@H](O)[C@H]1O [Example 13, 5-p-Hydroxymethylphenyl-2-(1-normon-2-yl) oxazole A] | 1.25 µg/mL (≈ 2.64 µM) | ≤ 0.01 µg/mL | 4 µg/mL (≈ 8.45 µM) | > 128 µg/mL | > 80 µg/mL | > 80 µg/mL | > 80 µg/mL |  | 0.312 µg/mL (≈ 0.659 µM) | 4 µg/mL (≈ 8.45 µM) | 1.25 µg/mL (≈ 2.64 µM) | 40 µg/mL (≈ 84.5 µM) | 0.025 µg/mL (≈ 0.0528 µM) | > 80 µg/mL | 0.5 µg/mL (≈ 1.06 µM) | 0.1 µg/mL (≈ 0.211 µM) | 0.5 µg/mL (≈ 1.06 µM) | 0.25 µg/mL (≈ 0.528 µM) | 0.1 µg/mL (≈ 0.211 µM) | 0.25 µg/mL (≈ 0.528 µM) | MIC ([6]; Haemophilus influenzae, WY21, 18 h): 1 µg/mL (≈ 2.11 µM); MIC (M. pneumoniae ATCC 15492; [20]): 0.5 µg/mL (≈ 1.06 µM); MIC [8, 21]: 0.25 µg/mL (≈ 0.528 µM); MIC (M. suipneumoniae JF 435; [22]): 0.25 µg/mL (≈ 0.528 µM)
C/C(=C\c1ncc(C)o1)C[C@@H]1OC[C@H](C[C@@H]2O[C@H]2[C@@H](C)[C@H](C)O)[C@@H](O)[C@H]1O [Example 14, 5-Methyl-2-(1-normon-2-yl) oxazole A] | 10 µg/mL (≈ 26.2 µM) | 0.05 µg/mL (≈ 0.131 µM) | 16 µg/mL (≈ 41.9 µM) | > 128 µg/mL | > 80 µg/mL | > 80 µg/mL | > 80 µg/mL | 2 µg/mL (≈ 5.24 µM) | 2.5 µg/mL (≈ 6.55 µM) | 32 µg/mL (≈ 83.9 µM) | 10 µg/mL (≈ 26.2 µM) | > 80 µg/mL | 0.1 µg/mL (≈ 0.262 µM) | > 80 µg/mL | > 10 µg/mL |  | 2 µg/mL (≈ 5.24 µM) |  |  |  | MIC (M. suipneumoniae Str. 11; STR.11, 144 h): 2.5 µg/mL (≈ 6.55 µM); MIC [2]: 5 µg/mL (≈ 13.1 µM); MIC (M. suipneumoniae NB12; NB12, 144 h): 5 µg/mL (≈ 13.1 µM); MIC [7]: 5 µg/mL (≈ 13.1 µM); MIC (M. pneumoniae ATCC 15492; [20]): > 10 µg/mL; MIC [8]: 5 µg/mL (≈ 13.1 µM); MIC (M. suipneumoniae JF 435): 5 µg/mL (≈ 13.1 µM)
C/C(=C\c1ncc(-c2ccc(C=O)cc2)o1)C[C@@H]1OC[C@H](C[C@@H]2O[C@H]2[C@@H](C)[C@H](C)O)[C@@H](O)[C@H]1O [Example 15, 5-p-Formylphenyl-2-(1-normon-2-yl) oxazole A] | 1.25 µg/mL (≈ 2.65 µM) | 0.05 µg/mL (≈ 0.106 µM) | 4 µg/mL (≈ 8.48 µM) | > 128 µg/mL | > 80 µg/mL | > 80 µg/mL | > 80 µg/mL | 4 µg/mL (≈ 8.48 µM) | 0.625 µg/mL (≈ 1.33 µM) | 8 µg/mL (≈ 17 µM) | 0.625 µg/mL (≈ 1.33 µM) | 80 µg/mL (≈ 170 µM) | 0.05 µg/mL (≈ 0.106 µM) | > 80 µg/mL |  | 0.5 µg/mL (≈ 1.06 µM) | 4 µg/mL (≈ 8.48 µM) | 0.5 µg/mL (≈ 1.06 µM) | 0.5 µg/mL (≈ 1.06 µM) | 0.5 µg/mL (≈ 1.06 µM) | MIC (M. gallisepticum S6; S6, 144 h): 1 µg/mL (≈ 2.12 µM); MIC (M. pneumoniae ATCC 15492): 1 µg/mL (≈ 2.12 µM); MIC [8, 21]: 0.5 µg/mL (≈ 1.06 µM); MIC (M. suipneumoniae JF 435; [22]): 0.5 µg/mL (≈ 1.06 µM)
